Test results published in ChEMBL document CHEMBL1156866 (J Med Chem, 2010).
Blank lines part the entries; values can stand above or below the molecule they belong to. The source made the active and inactive calls. The rule behind the calls is not given here.

Experiments:
[1] = biological target: T1, Reduced folate transporter (Homo sapiens) (UniProt P41440); experiment: Displacement of [3H]MTX from human RFC expressed in Chinese hamster PC43-10 cells at 10 uM; assay type: cell-based
T1 sequence (whole entry): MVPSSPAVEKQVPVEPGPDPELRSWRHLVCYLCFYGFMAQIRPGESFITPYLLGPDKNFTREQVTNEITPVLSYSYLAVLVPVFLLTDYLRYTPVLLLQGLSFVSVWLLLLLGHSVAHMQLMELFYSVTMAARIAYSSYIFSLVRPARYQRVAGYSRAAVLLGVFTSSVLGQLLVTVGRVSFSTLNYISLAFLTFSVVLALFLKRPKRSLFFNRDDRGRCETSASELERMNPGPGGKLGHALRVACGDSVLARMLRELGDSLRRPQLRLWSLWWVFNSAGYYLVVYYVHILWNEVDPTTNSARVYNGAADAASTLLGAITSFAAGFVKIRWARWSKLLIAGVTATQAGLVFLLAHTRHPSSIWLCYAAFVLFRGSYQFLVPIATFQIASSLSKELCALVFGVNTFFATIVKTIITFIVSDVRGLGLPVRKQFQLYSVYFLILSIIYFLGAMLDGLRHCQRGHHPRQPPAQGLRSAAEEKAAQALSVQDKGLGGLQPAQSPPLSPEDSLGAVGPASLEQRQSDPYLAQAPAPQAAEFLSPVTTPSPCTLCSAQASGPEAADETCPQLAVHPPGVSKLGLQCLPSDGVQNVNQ

[2] = biological target: Folate receptor alpha (Homo sapiens) (UniProt P15328); experiment: Displacement of [3H]folic acid from human FRalpha expressed in Chinese hamster RT16 cells relative to unlabeled folic acid; assay type: cell-based
Folate receptor alpha (Homo sapiens), sequence (P15328 25-234 limits assumed): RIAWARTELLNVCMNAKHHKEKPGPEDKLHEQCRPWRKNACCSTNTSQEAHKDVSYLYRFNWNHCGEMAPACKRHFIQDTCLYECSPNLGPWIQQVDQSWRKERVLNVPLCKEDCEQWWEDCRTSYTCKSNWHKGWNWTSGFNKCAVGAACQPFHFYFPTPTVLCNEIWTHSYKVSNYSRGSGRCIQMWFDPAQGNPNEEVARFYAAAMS

[3] = biological target: Folate receptor beta (Homo sapiens) (UniProt P14207); experiment: Displacement of [3H]folic acid from human FRbeta expressed in Chinese hamster D4 cells relative to unlabeled folic acid; assay type: cell-based
Folate receptor beta (Homo sapiens), sequence (P14207 17-230 limits assumed): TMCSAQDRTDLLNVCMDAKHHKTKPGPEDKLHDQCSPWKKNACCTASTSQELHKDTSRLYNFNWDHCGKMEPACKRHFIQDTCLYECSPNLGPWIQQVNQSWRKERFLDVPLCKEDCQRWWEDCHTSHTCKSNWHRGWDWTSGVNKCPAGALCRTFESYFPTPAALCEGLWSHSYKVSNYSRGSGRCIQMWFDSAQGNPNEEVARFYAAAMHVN

cells [4] = conditions: Cricetulus griseus, D4, 96 h
cells [5] = conditions: Cricetulus griseus, D4, 96 h; remark: listed apart in the source
cells [6] = conditions: Cricetulus griseus, 96 h
[7] = biological target: T2, Proton-coupled folate transporter (Homo sapiens, UniProt Q96NT5); experiment: Displacement of [3H]MTX from human PCFT expressed in Chinese hamster R2 cells at pH 6.8 by Dixon plot; assay type: cell-based
T2 sequence (Q96NT5 whole entry): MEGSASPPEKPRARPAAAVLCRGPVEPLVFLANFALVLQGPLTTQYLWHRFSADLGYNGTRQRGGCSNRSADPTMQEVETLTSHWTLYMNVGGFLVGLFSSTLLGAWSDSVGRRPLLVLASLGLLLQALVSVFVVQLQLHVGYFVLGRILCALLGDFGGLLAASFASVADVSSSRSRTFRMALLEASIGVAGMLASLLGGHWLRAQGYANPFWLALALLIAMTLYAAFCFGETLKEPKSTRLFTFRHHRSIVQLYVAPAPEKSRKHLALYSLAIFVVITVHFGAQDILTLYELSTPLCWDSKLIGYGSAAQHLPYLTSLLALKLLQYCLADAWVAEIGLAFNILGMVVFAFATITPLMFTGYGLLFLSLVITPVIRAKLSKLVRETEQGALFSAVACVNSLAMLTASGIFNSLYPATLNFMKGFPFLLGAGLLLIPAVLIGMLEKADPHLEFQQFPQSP

[8] = biological target: T2, Proton-coupled folate transporter; experiment: Displacement of [3H]MTX from human PCFT expressed in Chinese hamster R2 cells at pH 5.5 by Dixon plot; assay type: cell-based
R2 [9] = experiment: cells; conditions: Homo sapiens, R2, 96 h
cells [10] = conditions: Cricetulus griseus, PC43-10, 96 h
R2 [11] = experiment: cells; conditions: Homo sapiens, R2, 96 h; remark: listed apart in the source
cells [12] = conditions: Cricetulus griseus, RT16, 96 h
cells [13] = conditions: Cricetulus griseus, RT16, 96 h; remark: listed apart in the source
KB [14] = experiment: cells; conditions: Homo sapiens, 96 h
IGROV-1 [15] = experiment: cells; conditions: Homo sapiens, IGROV-1, 96 h
IGROV-1 [16] = experiment: cells; conditions: Homo sapiens, IGROV-1, 96 h; remark: listed apart in the source
KB [17] = experiment: Antitumor activity against human KB cells xenografted in folate deficient diet fed ICR SCID mouse assessed as tumor cell kill at 180 mg/kg, iv administered as Q4dx4 schedule starting from 4 days post tumor implantation; assay type: functional
KB [18] = experiment: Antitumor activity against human KB cells xenografted in folate deficient diet fed ICR SCID mouse assessed as tumor cell kill at 180 mg/kg, iv administered as Q4dx4 schedule starting from 29 days post tumor implantation; assay type: functional
KB [19] = experiment: Antitumor activity against human KB cells xenografted in folate deficient diet fed ICR SCID mouse assessed as tumor cell killing at 112.5 mg/kg, iv administered as Q4dx4 schedule starting from 29 days post tumor implantation; assay type: functional
KB [20] = experiment: cells; conditions: Homo sapiens, 96 h; remark: listed apart in the source

inhibition [1]: > 50%
Structure (SMILES): Cc1nc(=O)c2cc(CN(C)c3ccc(C(=O)N[C@@H](CCC(=O)O)C(=O)O)s3)ccc2[nH]1

relative binding affinity (RBA) [2]: 0.6
relative binding affinity (RBA) [3]: 0.4
Activity [1]: inactive
IC50 (cells [4]): > 1000 nM
IC50 (cells [5]): > 1000 nM
IC50 (cells [6]): > 1000 nM
Structure (SMILES): Nc1nc2[nH]c(CCCCCCc3ccc(C(=O)N[C@@H](CCC(=O)O)C(=O)O)s3)cc2c(=O)[nH]1

Structure (SMILES): Nc1nc2c(c(=O)[nH]1)C[C@@H](CCc1ccc(C(=O)N[C@@H](CCC(=O)O)C(=O)O)cc1)CN2
Activity [2]: Active
Activity [3]: Active
inhibition [1]: > 50%

Structure (SMILES): Nc1nc2[nH]c(CCCCCc3ccc(C(=O)N[C@@H](CCC(=O)O)C(=O)O)s3)cc2c(=O)[nH]1
relative binding affinity (RBA) [2]: 0.9
relative binding affinity (RBA) [3]: 1.1
Ki [7]: 2230 nM
Ki [8]: 100 nM
Activity [1]: inactive
IC50 (cells [5]): > 1000 nM
IC50 (R2 [9]): 101 nM
IC50 (cells [6]): > 1000 nM

Activity [3]: inactive
inhibition [1]: > 50%
Structure (SMILES): Nc1nc2[nH]cc(CCc3ccc(C(=O)N[C@@H](CCC(=O)O)C(=O)O)cc3)c2c(=O)[nH]1

inhibition [1]: > 50%
Structure (SMILES): Nc1nc(=O)c2c([nH]1)NCC(CNc1ccc(C(=O)N[C@@H](CCC(=O)O)C(=O)O)cc1)N2C=O (mixture of isomers)

Activity [2]: inactive
Activity [3]: inactive
Structure (SMILES): CN(Cc1cnc2nc(N)nc(N)c2n1)c1ccc(C(=O)N[C@@H](CCC(=O)O)C(=O)O)cc1

IC50 (cells [10]): 1.28 nM
IC50 (R2 [11]): > 1000 nM
IC50 (cells [12]): 409 nM
IC50 (cells [13]): 864 nM
IC50 (R2 [9]): > 1000 nM
IC50 (cells [6]): > 1000 nM
IC50 (KB [14]): 5.26 nM
IC50 (IGROV-1 [15]): 3.47 nM
IC50 (IGROV-1 [16]): 2.47 nM
Structure (SMILES): Nc1nc(N)c2nc(CNc3ccc(C(=O)N[C@@H](CCCNC(=O)c4ccccc4C(=O)O)C(=O)O)cc3)cnc2n1 [TALOTREXIN]

Structure (SMILES): Nc1nc2[nH]c(CCCCc3ccc(C(=O)N[C@@H](CCC(=O)O)C(=O)O)s3)cc2c(=O)[nH]1
Activity [1]: inactive
LCK (KB [17]): 3.5
LCK (KB [18]): 3.7
LCK (KB [19]): 3.8
IC50 (cells [10]): > 1000 nM
IC50 (R2 [11]): > 1000 nM
IC50 (cells [12]): 1.82 nM
IC50 (cells [13]): > 1000 nM
IC50 (cells [5]): > 1000 nM
IC50 (R2 [9]): 43.4 nM
IC50 (cells [6]): > 1000 nM
IC50 (KB [20]): > 1000 nM
IC50 (IGROV-1 [16]): > 1000 nM
